Laboratory results as given in patent US20240041042A1, “1-(PYRIDYL)-5-AZINYLPYRAZOLE DERIVATIVES, AND THEIR USE FOR CONTROL OF UNDESIRED PLANT GROWTH” (Bayer Aktiengesellschaft, priority 2020, published 2024).
Where two headings read alike, the source gives them in different places.

Key:
Type in all cases: in vivo
[1] = test system: Abutilon theophrasti (ABUTH); experiment: Post-emergence herbicidal action against ABUTH; details: 320 g/ha, visual rating about 3 weeks after treatment vs untreated controls (100% = plants have died, 0% = like control plants)
Method in brief: (§1)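 Greenhouse plants sprayed at the one-leaf stage, 2–3 weeks after sowing, with WP or EC formulations plus 0.5% additive at 600 l/ha water. Activity rated visually after about 3 weeks versus untreated controls (100% = dead, 0% = like control), at 320 g/ha or lower.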

[2] = test system: Verconica persica (VERPE); experiment: Post-emergence herbicidal action against VERPE
Method in brief: as §1

[3] = test system: Pharbitis purpurea (PHBPU); experiment: Post-emergence herbicidal action against PHBPU; details: dosage 320 g/ha
Method in brief: as §1

[4] = test system: Viola tricolor (VIOTR); experiment: Post-emergence herbicidal action against VIOTR
Method in brief: as §1

[5] = test system: Triticum aestivum (TRZAS); details: crop plant compatibility, effect vs untreated controls
Method in brief: (§2)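 Effects were read visually as % versus untreated controls (0% = no effect, 100% = death) about 3 weeks post-treatment. Application was a post-emergence spray at the one-leaf stage of WP/EC formulations with 0.5% additive at 600 l/ha. Different dosages are denoted a, b and c.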

[6] = test system: Zea mays (ZEAMX); details: for Post-emergence action against ZEAMX in % (crop plant compatibility): 20 g/ha, effect in comparison to untreated controls; for Post-emergence action against ZEAMX in %: crop plant compatibility, effect vs untreated controls
Method in brief: as §2

[7] = test system: Setaria viridis (SETVI); experiment: Post-emergence herbicidal action against SETVI; details: dosage 320 g/ha
Method in brief: as §1

[8] = test system: Avena fatua (AVEFA); experiment: Post-emergence herbicidal action against AVEFA; details: 320 g/ha, visual rating about 3 weeks after treatment
Method in brief: as §1

[9] = test system: Amaranthus retroflexus (AMARE); experiment: Post-emergence herbicidal action against AMARE; details: 320 g/ha, visual rating about 3 weeks after treatment
Method in brief: as §1

[10] = test system: Oryza sativa (ORYSA); details: crop plant compatibility
Method in brief: as §2

[11] = test system: Echinochloa crus-galli (ECHCG); experiment: Post-emergence herbicidal action against ECHCG; details: dosage 320 g/ha
Method in brief: as §1

[12] = test system: Alopecurus myosuroides (ALOMY); experiment: Post-emergence herbicidal action against ALOMY; details: 320 g/ha, visual rating about 3 weeks after treatment vs untreated controls (100% = plants have died, 0% = like control plants)
Method in brief: as §1

[13] = test system: Polygonum convolvulus (POLCO); experiment: Post-emergence herbicidal action against POLCO; details: dosage 320 g/ha
Method in brief: as §1

[14] = test system: Lolium rigidum (LOLRI); experiment: Post-emergence herbicidal action against LOLRI; details: dosage 320 g/ha
Method in brief: as §1

[15] = test system: Polygonum convolvulus (POLCO); experiment: Pre-emergence herbicidal action against POLCO; details: dosage 320 g/ha
Method in brief: (§3)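 Pre-emergence soil-surface spray, WP/EC formulation, 0.5% additive, 600 l/ha water, rates of 320 g/ha or lower. Greenhouse, ~3 wk. Visual score, % of untreated control (100% = plants dead, 0% = like control).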

[16] = test system: Amaranthus retroflexus (AMARE); experiment: Pre-emergence herbicidal action against AMARE; details: 320 g/ha, visual scoring after about 3 weeks vs untreated controls
Method in brief: as §3

[17] = test system: Verconica persica (VERPE); experiment: Pre-emergence herbicidal action against VERPE; details: dosage 320 g/ha
Method in brief: as §3

[18] = test system: Echinochloa crus-galli (ECHCG); experiment: Pre-emergence herbicidal action against ECHCG; details: dosage 320 g/ha
Method in brief: as §3

[19] = test system: Viola tricolor (VIOTR); experiment: Pre-emergence herbicidal action against VIOTR; details: 320 g/ha, Viola tricolor
Method in brief: as §3

[20] = 20 g/ha, effect vs untreated controls
[21] = 80 g/ha, effect in comparison to untreated controls
[22] = 320 g/ha, effect in comparison to untreated controls

Row | Compound | Post-emergence action against ABUTH in % [1] [%] | Post-emergence action against VERPE in % ([2]; 320 g/ha, VERPE) [%] | Post-emergence action against PHBPU in % [3] [%] | Post-emergence action against VIOTR in % ([4]; 80 g/ha) [%] | Post-emergence action against VIOTR in % ([4]; 320 g/ha) [%] | Post-emergence action against TRZAS in % ([5]; 20 g/ha) [%] | Post-emergence action against TRZAS in % ([5]; 80 g/ha) [%] | Post-emergence action against ZEAMX in % (crop plant compatibility) [6] [%] | Post-emergence action against ZEAMX in % ([6]; 80 g/ha) [%] | Post-emergence action against SETVI in % [7] [%] | Post-emergence action against ZEAMX in % ([6]; 320 g/ha) [%] | Post-emergence action against ORYSA in % [10, 20] [%] | Post-emergence action against ORYSA in % [10, 21] [%] | Post-emergence action against ORYSA in % [10, 22] [%] | Post-emergence action against ECHCG in % [11] [%] | Post-emergence action against ALOMY in % [12] [%] | Post-emergence action against POLCO in % [13] [%] | Post-emergence action against TRZAS in % ([5]; 320 g/ha) [%] | other results
1 | COC(=O)C(C)COC(=O)COc1nn(-c2ncccc2C(F)(F)F)c(-c2ccc(F)nc2)c1C1CC1(F)F (stereo not drawn) [Example I-268] | 80 | 80 | 80 | 80 | 80 | 0 | 0 | 0 | 0 | – | – | – | – | – | – | – | – | – | –
2 | Cc1ncccc1-n1nc(OCC(=O)OCc2ccccn2)c(Br)c1-c1cncc(F)c1 [II-39] | 80 | 90 | 90 | 80 | 90 | 0 | 20 | 0 | 0 | 90 | 20 | 0 | 0 | 0 | 90 | 90 | – | – | Post-emergence action against VERPE in % ([2]; dosage 80 g/ha): 80%; Post-emergence action against AVEFA in % [8]: 90%; Post-emergence action against AMARE in % [9]: 80%
3 | COC(=O)[C@@H](C)Oc1nn(-c2ncccc2F)c(-c2ccnc(F)c2)c1I [Example I-138] | 80 | 80 | 80 | 80 | 80 | 10 | – | 20 | 20 | 80 | – | 0 | 0 | 20 | 90 | – | 80 | – | Post-emergence action against LOLRI in % [14]: 90%
4 | COC(=O)CNC(=O)COc1nn(-c2ncccc2C(F)(F)F)c(-c2cncc(F)c2)c1Br [Example I-205] | – | – | – | – | – | – | 10 | – | 0 | – | 0 | – | 0 | 10 | – | – | – | 10 | Pre-emergence action against POLCO in % [15]: 80%; Pre-emergence action against AMARE in % [16]: 80%; Pre-emergence action against VERPE in % [17]: 100%; Pre-emergence action against ECHCG in % [18]: 80%; Pre-emergence action against VIOTR in % [19]: 100%
5 | CCOC(=O)COc1nn(-c2cccnc2C)c(-c2ccc(F)nc2)c1Br [II-46] | – | 90 | – | – | 90 | 0 | 0 | 0 | 0 | – | 20 | 0 | 0 | 0 | – | 80 | 80 | – | –
6 | O=C(O)COc1nn(-c2ccccn2)c(-c2ccc(F)nc2)c1C1CC1(F)F (stereo not drawn) [Example I-249] | 80 | 80 | – | 80 | 80 | 0 | 0 | 0 | 20 | – | – | – | – | – | – | – | – | 0 | –
